In one test the target is Endothelial lipase (EL) (Homo sapiens (Human), UniProt Q9Y5X9). In words: EL assay: endothelial lipase activity with fluorescent substrate A10070 in DMPG vesicles. It counts as biochemical. Put shortly: (§1)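 Compounds were preincubated with enzyme for 30 min at 37° C before FRET-substrate vesicles (A10070 in DMPG, 0.11 mole fraction) were added. Reaction rates were obtained from the 300–900 sec slope of fluorescence at 490/530 nm.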

The next test has as its target hepatic lipase (HL) (Homo sapiens (Human), UniProt P11150). In words: HL assay: hepatic lipase activity with fluorescent substrate A10070 in DMPG vesicles. It counts as biochemical. The essentials:
as §1

Chain of Endothelial lipase (EL) (Q9Y5X9 21-500): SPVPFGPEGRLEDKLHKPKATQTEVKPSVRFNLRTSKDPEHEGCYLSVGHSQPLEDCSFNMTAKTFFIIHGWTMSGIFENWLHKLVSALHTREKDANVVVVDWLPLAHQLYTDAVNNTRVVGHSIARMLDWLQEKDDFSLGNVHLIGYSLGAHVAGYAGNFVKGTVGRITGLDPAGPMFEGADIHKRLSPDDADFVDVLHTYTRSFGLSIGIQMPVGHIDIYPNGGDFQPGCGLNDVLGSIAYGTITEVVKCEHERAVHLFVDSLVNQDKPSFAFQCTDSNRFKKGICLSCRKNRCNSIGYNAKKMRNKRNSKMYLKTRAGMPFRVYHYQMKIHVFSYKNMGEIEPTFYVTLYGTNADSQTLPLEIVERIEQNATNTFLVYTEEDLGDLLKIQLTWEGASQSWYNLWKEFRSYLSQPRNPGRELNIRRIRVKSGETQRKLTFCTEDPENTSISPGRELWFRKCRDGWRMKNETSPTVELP
Chain of hepatic lipase (HL) (P11150 23-499, species assumed): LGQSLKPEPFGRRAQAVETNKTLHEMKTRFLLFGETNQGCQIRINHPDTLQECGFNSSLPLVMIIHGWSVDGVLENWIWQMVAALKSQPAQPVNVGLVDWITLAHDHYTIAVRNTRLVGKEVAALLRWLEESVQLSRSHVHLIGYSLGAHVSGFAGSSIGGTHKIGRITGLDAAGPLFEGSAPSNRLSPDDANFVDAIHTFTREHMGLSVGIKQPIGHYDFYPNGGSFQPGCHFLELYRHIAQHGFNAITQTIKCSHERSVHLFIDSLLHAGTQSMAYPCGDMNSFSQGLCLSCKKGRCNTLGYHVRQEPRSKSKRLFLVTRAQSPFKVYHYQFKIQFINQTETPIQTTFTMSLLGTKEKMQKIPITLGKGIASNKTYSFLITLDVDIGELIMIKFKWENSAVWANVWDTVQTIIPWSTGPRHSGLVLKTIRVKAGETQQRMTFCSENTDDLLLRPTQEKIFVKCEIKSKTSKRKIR

Regarding `COCCNC(=O)c1ccc(-c2ccc3nc(C(C(=O)NCCS(N)(=O)=O)S(=O)(=O)Cc4ccc(C(F)(F)F)cc4)sc3c2)cc1` (stereo not drawn) [Example B116, N-(2-methoxyethyl)-4-(2-(2-oxo-2-((2-sulfamoyl-ethyl)amino)-1-((4-(trifluoromethyl)benzyl)sul-fonyl)ethyl)-1,3-benzothiazol-6-yl)ben-zamide], the IC50 (in general, the midpoint of a concentration-inhibition curve) is < 10 nM against Endothelial lipase (EL) and 182 nM against hepatic lipase (HL).
For `COCCNC(=O)c1ccc(-c2ccc3nc(C(C(=O)NCCS(N)(=O)=O)S(=O)(=O)Cc4cccc(F)c4)sc3c2)cc1` (stereo not drawn) [Example B117, 4-(2-(1-((3-fluorobenzyl)sulfonyl)-2-oxo-2-((2-sulfamoylethyl)a-mino)ethyl)-1,3-benzothiazol-6-yl)-N-(2-methoxyethyl)benzamide], the IC50 against Endothelial lipase (EL) is < 10 nM; on hepatic lipase (HL) it was 176 nM.
`NS(=O)(=O)CCNC(=O)C(c1nc2ccc(-c3ccccc3)cc2s1)S(=O)(=O)CC1CC1` (stereo not drawn) [Example B118, 2-((cyclopropylmethyl)sul-fonyl)-2-(6-phenyl-1,3-benzothiazol-2-yl)-N-(2-sulfamoylethyl)acetamide]: the figures for the IC50 at Endothelial lipase (EL) and at hepatic lipase (HL) were < 10 nM and 10 nM, respectively.
In the same order, the values of `NS(=O)(=O)CCNC(=O)C(c1nc2ccc(-c3ccccc3)cc2s1)S(=O)(=O)Cc1ccc(F)cc1` (stereo not drawn) [Example B119, 2-((4-fluorobenzyl)sul-fonyl)-2-(6-phenyl-1,3-benzothiazol-2-yl)-N-(2-sulfamoylethyl)acetamide] are < 10 nM and 11 nM.
For `N#Cc1cccc(CS(=O)(=O)C(C(=O)NCCS(N)(=O)=O)c2nc3ccc(-c4ccccc4)cc3s2)c1` (stereo not drawn) [Example B120, 2-((3-cyanobenzyl)sul-fonyl)-2-(6-phenyl-1,3-benzothiazol-2-yl)-N-(2-sulfamoylethyl)acetamide] the same measures were < 10 nM and 15 nM.
In the same order, the values of `COc1ccc(CN(Cc2ccc(OC)cc2)S(=O)(=O)CCNC(=O)C(c2nc3ccc(-c4ccccc4)cc3s2)S(C)(=O)=O)cc1` (stereo not drawn) [Example B121, N-(2-(bis(4-methoxybenzyl)sulfamoyl)eth-yl)-2-(methylsulfonyl)-2-(6-phenyl-1,3-benzothiazol-2-yl)a-cetamide] are 80 nM and 11 nM.
Turning to `NS(=O)(=O)CCNC(=O)C(c1nc2ccc(-c3cnn(CCN4CCOCC4)c3)cc2s1)S(=O)(=O)Cc1ccccc1` (stereo not drawn) [Example B122, 2-(benzylsulfonyl)-2-(6-{1-[2-(4-morpholinyl)ethyl]-1H-pyrazol-4-yl}-1,3-benzothiazol-2-yl)-N-(2-sulfamoylethyl)acetamide], the IC50 was 44 nM against Endothelial lipase (EL) and 631 nM against hepatic lipase (HL).
In the same order, the values of `CC(C)CS(=O)(=O)C(C(=O)NCCS(N)(=O)=O)c1nc2ccc(-c3cnn(CCN4CCOCC4)c3)cc2s1` (stereo not drawn) [Example B123, 2-(isobutylsulfonyl)-2-(6-{1-[2-(4-morpholinyl)eth-yl]-1H-pyrazol-4-yl}-1,3-benzothiazol-2-yl)-N-(2-sulfamoylethyl)a-cetamide] are 18 nM and 400 nM.
Take `COCCS(=O)(=O)C(C(=O)NCCS(N)(=O)=O)c1nc2ccc(Br)cc2s1` (stereo not drawn) [Example B124, 2-(6-bromo-1,3-benzothiazol-2-yl)-2-((2-methoxyethyl)sulfonyl)-N-(2-sulfamoylethyl)a-cetamide]: the half-maximal inhibitory concentration (IC50) against Endothelial lipase (EL) was found to be 26 nM; on hepatic lipase (HL), 830 nM.
In the same order, the values of `NS(=O)(=O)CCNC(=O)C(c1nc2ccc(Br)cc2s1)S(=O)(=O)CCC(F)(F)F` (stereo not drawn) [Example B125, 2-(6-bromo-1,3-benzothiazol-2-yl)-N-(2-sulfamoylethyl)-2-((3,3,3-trifluoropropyl)sulfonyl)a-cetamide] are 99 nM and 300 nM.
In the same order, the values of `NS(=O)(=O)CCNC(=O)C(c1nc2ccc(-c3ccnc(F)c3)cc2s1)S(=O)(=O)Cc1ccccc1` (stereo not drawn) [Example B126, 2-(benzylsulfonyl)-2-(6-(2-fluoro-4-pyridinyl)-1,3-benzothiazol-2-yl)-N-(2-sulfamoylethyl)acetamide] are < 10 nM and 51 nM.
In the same order, the values of `NS(=O)(=O)CCNC(=O)C(c1nc2ccc(-c3cnn(CCN4CCOCC4)c3)cc2s1)S(=O)(=O)CCCC(F)(F)F` (stereo not drawn) [Example B127, 2-(6-(1-(2-(4-morpholinyl)eth-yl)-1H-pyrazol-4-yl)-1,3-benzothiazol-2-yl)-N-(2-sulfamoylethyl)-2-((4,4,4-trifluorobutyl)sul-fonyl)acetamide] are < 10 nM and 933 nM.
For `Cc1cc2nc(C(C(=O)NCCS(N)(=O)=O)S(C)(=O)=O)sc2cc1-c1ccc(F)nc1` (stereo not drawn) [Example B129], the IC50 against Endothelial lipase (EL) and on hepatic lipase (HL) was < 10 nM each time.
Regarding `Cc1cc2nc(C(C(=O)NCCS(N)(=O)=O)S(=O)(=O)CCC(F)(F)F)sc2cc1-c1ccc(F)nc1` (stereo not drawn) [Example B130, 2-(6-(6-fluoro-3-pyridinyl)-5-methyl-1,3-benzothiazol-2-yl)-2-(3,3,3-trifluoropropyl-sulfonyl)-N-(2-sulfamoylethyl)acetamide], the results for the IC50 against Endothelial lipase (EL) and at hepatic lipase (HL) were < 10 nM and 13 nM, respectively.
As to `Cc1cc2nc(C(C(=O)NCCS(N)(=O)=O)S(=O)(=O)CC(C)C)sc2cc1-c1ccc(F)nc1` (stereo not drawn) [Example B131, 2-(6-(6-fluoro-3-pyridinyl)-5-methyl-1,3-benzothiazol-2-yl)-2-(isobutylsulfonyl)-N-(2-sulfamoylethyl)acetamide], the IC50 against Endothelial lipase (EL) is < 10 nM; on hepatic lipase (HL), 12 nM.
For `Cc1cc2nc(C(C(=O)NCCS(N)(=O)=O)S(=O)(=O)C(C)C)sc2cc1-c1ccc(F)nc1` (stereo not drawn) [Example B132, 2-(6-(6-fluoro-3-pyridinyl)-5-methyl-1,3-benzothiazol-2-yl)-2-(isopropylsulfonyl)-N-(2-sulfamoylethyl)acetamide] the same measures were < 10 nM and 411 nM.
In the same order, the values of `NS(=O)(=O)CCNC(=O)C(c1nc2c(F)cc(-c3ccccc3)cc2s1)S(=O)(=O)Cc1ccccc1` (stereo not drawn) [Example B133, 2-(benzylsulfonyl)-2-(4-fluoro-6-phenyl-1,3-benzothiazol-2-yl)-N-(2-sulfamoylethyl)acetamide] are < 10 nM and 22 nM.
For `COCCS(=O)(=O)C(C(=O)NCCS(N)(=O)=O)c1nc2c(F)cc(-c3ccccc3)cc2s1` (stereo not drawn) [Example B134, 2-(4-fluoro-6-phenyl-1,3-benzothiazol-2-yl)-2-((2-methoxyethyl)sulfonyl)-N-(2-sulfamoylethyl)a-cetamide] the same measures were < 10 nM and 18 nM.
`NS(=O)(=O)CCNC(=O)C(c1nc2cc(F)c(-c3ccccc3)cc2s1)S(=O)(=O)CCNC(=O)OCc1ccccc1` (stereo not drawn) [Example B135, benzyl (2-((1-(5-fluoro-6-phenyl-1,3-benzothiazol-2-yl)-2-oxo-2-((2-sulfamoyl-ethyl)amino)ethyl)sul-fonyl)ethyl)carbamate]: the 50% inhibitory concentration (IC50) against Endothelial lipase (EL) was < 10 nM; at hepatic lipase (HL), 56 nM.
In the same order, the values of `NS(=O)(=O)CCNC(=O)C(c1nc2cc(F)c(-c3ccccc3)cc2s1)S(=O)(=O)CCC(F)(F)F` (stereo not drawn) [Example B136, 2-(5-fluoro-6-phenyl-1,3-benzothiazol-2-yl)-N-(2-sulfamoylethyl)-2-[(3,3,3-trifluoropropyl)sulfonyl]a-cetamide] are < 10 nM and 11 nM.
For `CS(=O)(=O)C(C(=O)NCc1csc(N)n1)c1nc2ccc(-c3ccc(C(=O)N4CCOCC4)cc3)cc2s1` (stereo not drawn) [Example B137, N-((2-amino-1,3-thiazol-4-yl)methyl)-2-(methylsulfonyl)-2-(6-(4-(4-morpholinylcarbonyl)phen-yl)-1,3-benzothiazol-2-yl)acetamide] the same measures were < 10 nM and 17500 nM.
For `Cn1cc(-c2cc3sc(C(C(=O)NCCS(N)(=O)=O)S(=O)(=O)Cc4ccccc4)nc3cc2F)cn1` (stereo not drawn) [Example B138, 2-(benzylsulfonyl)-2-(5-fluoro-6-(1-methyl-1H-pyrazol-4-yl)-1,3-benzothiazol-2-yl)-N-(2-sulfamoylethyl)acetamide] the same measures were < 10 nM and 142 nM.
For `NS(=O)(=O)CCNC(=O)C(c1nc2ccc(-c3cncnc3)cc2s1)S(=O)(=O)CCC(F)(F)F` (stereo not drawn) [Example B139, 2-(6-(5-Pyrimidinyl)-1,3-benzothiazol-2-yl)-N-(2-sulfamoylethyl)-2-((3,3,3-trifluoropropyl)sulfonyl)a-cetamide], the IC50 against Endothelial lipase (EL) worked out at 16 nM; against hepatic lipase (HL), 2090 nM.
Turning to `NS(=O)(=O)CCNC(=O)C(c1nc2ccc(-c3cncnc3)cc2s1)S(=O)(=O)Cc1ccccc1` (stereo not drawn) [Example B140, 2-(benzylsulfonyl)-2-(6-(5-pyrimidinyl)-1,3-benzothiazol-2-yl)-N-(2-sulfamoylethyl)acetamide], the IC50 on Endothelial lipase (EL) is 13.7 nM; against hepatic lipase (HL) it was 8790 nM.
In the same order, the values of `COCCS(=O)(=O)C(C(=O)NCCS(N)(=O)=O)c1nc2ccc(-c3cncnc3)cc2s1` (stereo not drawn) [Example B141, 2-((2-methoxyethyl)sul-fonyl)-2-(6-(5-pyrimidinyl)-1,3-benzothiazol-2-yl)-N-(2-sulfamoylethyl)acetamide] are 14.7 nM and 2210 nM.
In the same order, the values of `COc1cc(-c2ccc3nc(C(C(=O)NCCS(N)(=O)=O)S(C)(=O)=O)sc3c2)c(F)cn1` (stereo not drawn) [Example B142, 2-(6-(5-fluoro-2-methoxy-4-pyridinyl)-1,3-benzothiazol-2-yl)-2-(methylsulfonyl)-N-(2-sulfamoylethyl)acetamide] are > 10 nM and 77 nM.
For `NS(=O)(=O)CCNC(=O)C(c1nc2ccc(-c3cncnc3)cc2s1)S(=O)(=O)Cc1ccc(F)cc1` (stereo not drawn) [Example B143, 2-((4-fluorobenzyl)sul-fonyl)-2-(6-(5-pyrimidinyl)-1,3-benzothiazol-2-yl)-N-(2-sulfamoylethyl)acetamide] the same measures were 18 nM and 4740 nM.

The record behind these values is patent US8987314B2, “Amide, urea or sulfone amide linked benzothiazole inhibitors of endothelial lipase” (Bristol-Myers Squibb Company, priority 2012, dated 2015).
